Data reported in publication PMC3552554 (Thrombosis and haemostasis, 2010).
Non-standard residues stand in square brackets, D forms with d. Residues, ends and D or L forms follow the SMILES beside them. Oic = O=C(O)[C@@H]1C[C@@H]2CCCC[C@@H]2N1; Phe(4-Me) = Cc1ccc(C[C@H](N)C(=O)O)cc1

Legend:
[1] = cited from earlier work
[2] = administered intravenously; cited from earlier work
[3] = 3 mg/ml in drinking water; cited from earlier work
[4] = Tail bleeding time; format: in vivo, mouse; conditions: 3 mg/ml in drinking water, 5 days; n = 6; untreated 79±11 sec (n = 5), p = 0.38
[5] = molecular target: T1, thrombin (Homo sapiens, UniProt P00734); test: Plasma thrombin clotting time after oral treatment; format: in vivo, mouse; conditions: 3 mg/ml in drinking water
[6] = test system: PC3-luc tumors; test: PC3-luc tumor growth in nude mice; format: in vivo; conditions: oral 3 mg/ml in drinking water
[7] = test system: carotid artery thrombosis; conditions: cited from earlier work
[8] = test system: PC3 tumor vessels; test: PECAM; format: in vivo, nude mice; conditions: treated tumors, 3 mg/ml in drinking water; untreated 4.6 ± 2.1/hpf, p = 0.04
[9] = test system: PC3-luc cells; format: cell-based, human
[10] = test system: human platelets; conditions: cited from earlier work
[11] = molecular target: T1, thrombin; conditions: cited from earlier work
[12] = molecular target: thrombin; conditions: direct thrombin inhibitor; cited from earlier work
[13] = test system: PC3-luc cells; test: Matrigel invasion assay, α-thrombin-stimulated; format: cell-based, human; conditions: 1 nM α-thrombin overnight, p = 0.02, 3 independent experiments

In the case of `Cc1ccc(C[C@H](NC(=O)[C@@H](C)NC(=O)[C@@H]2CCCN2C(=O)[C@@H]2C[C@@H]3CCCC[C@@H]3N2C(=O)[C@H](N)CCCN=C(N)N)C(N)=O)cc1` [FM19, D-Arg-Oic-Pro, D-Ala-Phe(pMe)] (H-[dR][Oic]P[dA][Phe(4-Me)]-NH2), the plasma concentration ([1]; 5 mg/ml steady-state oral) is listed as 173 ± 16 ng/mL, the steady-state plasma concentration ([1]; oral 3 mg/ml in the drinking water, after 5 days) is listed as 80 ng/mL and the clearance [2] is listed as 8.2 ± 5.1 mL/min/kg. The t1/2α [2] was 32.5 ± 2.9 min, the “effect on mouse bleeding time” value [3] was “does not prolong the mouse bleeding time” and the “mean tail bleeding time” value [4] was 92 ± 8 s.

In the case of `Cc1ccc(C[C@H](NC(=O)[C@@H](C)NC(=O)[C@@H]2CCCN2C(=O)[C@@H]2C[C@@H]3CCCC[C@@H]3N2C(=O)[C@H](N)CCCNC(=N)N)C(N)=O)cc1` [FM19, D-Arg-Oic-Pro, D-Ala-Phe(pMe)] (H-[dR][Oic]P[dA][Phe(4-Me)]-NH2; N-terminus and C-terminus assumed), the thrombin clotting time ([5]; 5 days, n = 6, untreated 16±1 sec, p < 0.003) is reported as 22 ± 1 s, the “increase in the thrombin clotting time” value ([5]; treated vs untreated) is reported as 1.4 fold and the mean tumor weight ([6]; 5 weeks, 10 tumors, untreated 0.82 ± 0.32 g, p = 0.04) is reported as 0.5 ± 0.31 g. For the same compound, the “mean tumor growth rate” value ([6]; day 14 to day 28, bioluminescence normalized to day 7, untreated 0.55 ± 0.35, p = 0.038) was 0.26 ± 0.17 fold change/day, the “effect on time to carotid artery occlusion” value ([7]; 3 mg/ml in drinking water, rose Bengal assay) was “does not prolong the mouse bleeding time or delay time to carotid artery occlusion” and the “effect on induced arterial thrombosis” value ([7]; 5 mg/ml in drinking water) was “delays induced arterial thrombosis”. For the same compound, the “prolongation of the arterial thrombosis time” value ([7]; 5 mg/ml steady-state oral) was 2.7 fold, the “number of large vessels (> 10 microns)” value [8] was 1.4 ± 1.4 /hpf and the IC50 [9] was 15 µM. For the same compound, the “concentration that inhibited α-thrombin-induced calcium mobilization” value ([9]; PC3-luc cells, 1 nM α-thrombin) was 1 to 100 µM, the “inhibits the threshold of α-thrombin-induced human platelet aggregation” value [10] was 8.4 ± 4.7 µM and the “prolongation of the plasma thrombin clotting time” value ([11]; 3 mg/ml in drinking water, after 5 days) was 1.4 times. The “prolongation of the thrombin clotting time” value ([11]; 5 mg/ml steady-state oral) was 7.3 fold, the Ki [12] was 4.4 ± 2.4 µM and the “lowest concentration that significantly decreased the number of invading cells” value [13] was 0.1 µM.
